In patent US8114867B2, “Oxazolidinone antibiotic derivatives” (Actelion Pharmaceuticals Ltd, priority 2007, dated 2012):
Converted amounts (≈) assume the structure as drawn.

These compounds were tested on S. aureus 29213 (assay: MIC by broth microdilution (NCCLS), S. aureus 29213). Conditions: Staphylococcus aureus, strain S. aureus 29213, cation-adjusted Mueller-Hinton Broth, pH 7.2-7.3.
Type: cell-based
Protocol: These assays have been performed following the description given in “Methods for dilution Antimicrobial Susceptibility Tests for Bacteria that Grow Aerobically, 4th ed.; Approved standard: NCCLS Document M7-A4; National Committee for Clinical Laboratory Standards: Villanova, Pa., USA, 1997”. Minimal inhibitory concentrations (MICs; mg/l) were determined in cation-adjusted Mueller-Hinton Broth (BBL) by a microdilution method following NCCLS guidelines (National Committee for Clinical Laboratory Standards. Methods for Dilution Antimicrobial Susceptibility). The pH of the test medium was 7.2-7.3.
`COc1cnc2cccc(CCC(=O)NC[C@@H]3CN(c4ccc5c(c4)NC(=O)CS5)C(=O)O3)c2c1` [Example 28, 3-(3-methoxy-quinolin-5-yl)-N-[(R)-2-oxo-3-(3-oxo-3,4-dihydro-2H-benzo[1,4]thiazin-6-yl)-oxazolidin-5-ylmethyl]-propionamide] was tested, and the MIC was at most 0.063 µg/mL.
With `COc1ccc2c(OC)ccc(CNCCCC3CN(c4ccc5c(c4)NC(=O)CS5)C(=O)O3)c2c1` (racemic) [Example 169, rac-6-(5-{3-[(4,7-dimethoxy-naphthalen-1-ylmethyl)-amino]-propyl}-2-oxo-oxazolidin-3-yl)-4H-benzo[1,4]thiazin-3-one] the MIC was at most 0.063 µg/mL.
`O=C1CSc2ccc(N3CC(CCCNCc4cccc5ccccc45)OC3=O)cc2N1` (racemic) [Example 155, rac-6-(5-{3-[(naphthalen-1-ylmethyl)-amino]-propyl}-2-oxo-oxazolidin-3-yl)-4H-benzo[1,4]thiazin-3-one] showed an MIC of at most 0.063 µg/mL.
`COc1ccc2nccc(CCCCC[C@@H]3CN(c4ccc5c(c4)NC(=O)CS5)C(=O)O3)c2n1` [Example 125, 6-{(R)-5-[5-(6-methoxy-[1,5]naphthyridin-4-yl)-pentyl]-2-oxo-oxazolidin-3-yl}-4H-benzo[1,4]thiazin-3-one] gave an MIC of at most 0.063 µg/mL.
`COC(=O)CCN(CCCC1CN(c2ccc3c(c2)NC(=O)CS3)C(=O)O1)Cc1ccnc2ccc(OC)nc12` (racemic) [Example 171, rac-3-((6-methoxy-[1,5]naphthyridin-4-ylmethyl)-{3-[2-oxo-3-(3-oxo-3,4-dihydro-2H-benzo[1,4]thiazin-6-yl)-oxazolidin-5-yl]-propyl}-amino)-propionic acid methyl ester] was tested, and the MIC was at most 0.063 µg/mL.
Work on `COc1ccc2nccc(/C=C/CNC[C@@H]3CN(c4ccc5c(c4)OCCO5)C(=O)O3)c2n1` [Example 29, (R)-3-(2,3-dihydro-benzo[1,4]dioxin-6-yl)-5-{[(E)-3-(6-methoxy-[1,5]naphthyridin-4-yl)-allylamino]-methyl}-oxazolidin-2-one] yielded an MIC of at most 0.063 µg/mL.
`COc1ccc2nccc(CCCC[C@@H](O)[C@H]3CN(c4ccc5c(c4)OCCO5)C(=O)O3)c2n1` (relative stereo) [Example 111, (R*)-3-(2,3-dihydro-benzo[1,4]dioxin-6-yl)-5-[(R*)-1-hydroxy-5-(6-methoxy-[1,5]naphthyridin-4-yl)-pentyl]-oxazolidin-2-one] was tested, and the MIC was at most 0.063 µg/mL.
Work on `COc1ccc2nccc(CC[C@@H](N)CC[C@@H]3CN(c4ccc5c(c4)OCCO5)C(=O)O3)c2n1` (racemic) [Example 116, (RS)-5-[(RS)-3-amino-5-(6-methoxy-[1,5]naphthyridin-4-yl)-pentyl]-3-(2,3-dihydro-benzo[1,4]dioxin-6-yl)-oxazolidin-2-one] yielded an MIC of at most 0.063 µg/mL.
`COc1ccc2nccc(NC(=O)CNC[C@@H]3CN(c4ccc5c(c4)NC(=O)CS5)C(=O)O3)c2n1` [Example 91, N-(6-methoxy-[1,5]naphthyridin-4-yl)-2-{[(R)-2-oxo-3-(3-oxo-3,4-dihydro-2H-benzo[1,4]thiazin-6-yl)-oxazolidin-5-ylmethyl]-amino}-acetamide] gave an MIC of at most 0.063 µg/mL.
`COc1ccc2nccc(CCNC[C@@H](O)[C@H]3CN(c4ccc5c(c4)OCCO5)C(=O)O3)c2n1` (relative stereo) [Example 97, (R*)-3-(2,3-dihydro-benzo[1,4]dioxin-6-yl)-5-{(R*)-1-hydroxy-2-[2-(6-methoxy-[1,5]naphthyridin-4-yl)-ethylamino]-ethyl}-oxazolidin-2-one] showed an MIC of at most 0.063 µg/mL.
Compound `COc1ccc2nccc(/C=C/C(=O)N(C)C[C@@H]3CN(c4ccc(Br)c(F)c4)C(=O)O3)c2n1` [Example 22, (E)-N-[(R)-3-(4-bromo-3-fluoro-phenyl)-2-oxo-oxazolidin-5-ylmethyl]-3-(6-methoxy-[1,5]naphthyridin-4-yl)-N-methyl-acrylamide] has an MIC of at most 0.063 µg/mL.
`COc1ccc2nccc(COCCCC3CN(c4ccc5c(c4)OCCO5)C(=O)O3)c2c1` (racemic) [Example 120, rac-3-(2,3-dihydro-benzo[1,4]dioxin-6-yl)-5-[3-(6-methoxy-quinolin-4-ylmethoxy)-propyl]-oxazolidin-2-one] was tested, and the MIC was 0.125 µg/mL (≈ 0.277 µM).
`COc1ccc2nccc(CC(N)CNC[C@@H]3CN(c4ccc5c(c4)NC(=O)CS5)C(=O)O3)c2n1` (mixture of isomers) [Example 89, 6-((R)-5-{[(2RS)-2-amino-3-(6-methoxy-[1,5]naphthyridin-4-yl)-propylamino]-methyl}-2-oxo-oxazolidin-3-yl)-4H-benzo[1,4]thiazin-3-one] gave an MIC of 0.125 µg/mL.
`COc1ccc2nccc(CCCCNC[C@@H]3CN(c4ccc5c(c4)NC(=O)CS5)C(=O)O3)c2n1` [Example 113, 6-((R)-5-{[4-(6-methoxy-[1,5]naphthyridin-4-yl)-butylamino]-methyl}-2-oxo-oxazolidin-3-yl)-4H-benzo[1,4]thiazin-3-one] was tested, and the MIC was at most 0.063 µg/mL.
Work on `COc1cc2ccccc2c(CNCCCC2CN(c3ccc4c(c3)NC(=O)CS4)C(=O)O2)c1OC` (racemic) [Example 168, rac-6-(5-{3-[(2,3-dimethoxy-naphthalen-1-ylmethyl)-amino]-propyl}-2-oxo-oxazolidin-3-yl)-4H-benzo[1,4]thiazin-3-one] yielded an MIC of at most 0.063 µg/mL.
With `COc1ccc2nccc(C(=O)CCCCC3CN(c4ccc5c(c4)OCCO5)C(=O)O3)c2n1` (racemic) [Example 63, rac-3-(2,3-dihydro-benzo[1,4]dioxin-6-yl)-5-[5-(6-methoxy-[1,5]naphthyridin-4-yl)-5-oxo-pentyl]-oxazolidin-2-one] the MIC was at most 0.063 µg/mL.
Compound `CCc1ccc(N2C[C@@H](CN(C)C(=O)/C=C/c3ccnc4ccc(OC)nc34)OC2=O)cc1` [Example 14, (E)-N-[(R)-3-(4-ethyl-phenyl)-2-oxo-oxazolidin-5-ylmethyl]-3-(6-methoxy-[1,5]naphthyridin-4-yl)-N-methyl-acrylamide] has an MIC of at most 0.063 µg/mL.
In the case of `COc1ccc2nccc(CCN(C)C[C@@H](O)[C@H]3CN(c4ccc5c(c4)OCCO5)C(=O)O3)c2n1` (relative stereo) [Example 99, (R*)-3-(2,3-dihydro-benzo[1,4]dioxin-6-yl)-5-((R*)-1-hydroxy-2-{[2-(6-methoxy-[1,5]naphthyridin-4-yl)-ethyl]-methyl-amino}-ethyl)-oxazolidin-2-one], the MIC is reported as at most 0.063 µg/mL.
With `COc1ccc2ncc(F)c(CN(CCCC3CN(c4ccc5c(c4)NC(=O)CS5)C(=O)O3)C[C@@H](O)CCl)c2n1` (mixture of isomers) [Example 152, 6-((RS)-5-{3-[((R)-3-chloro-2-hydroxy-propyl)-(3-fluoro-6-methoxy-[1,5]naphthyridin-4-ylmethyl)-amino]-propyl}-2-oxo-oxazolidin-3-yl)-4H-benzo[1,4]thiazin-3-one] the MIC was at most 0.063 µg/mL.
`COc1ccc2nccc(CCC[C@@H](O)C[C@@H]3CN(c4ccc5c(c4)OCCO5)C(=O)O3)c2n1` (racemic) [Example 123, (RS)-3-(2,3-dihydro-benzo[1,4]dioxin-6-yl)-5-[(RS)-2-hydroxy-5-(6-methoxy-[1,5]naphthyridin-4-yl)-pentyl]oxazolidin-2-one] gave an MIC of at most 0.063 µg/mL.
Compound `COc1cnc2cccc([C@@H](O)CNCC[C@@H]3CN(c4ccc5c(c4)OCCO5)C(=O)O3)c2n1` (relative stereo) [Example 92, (R*)-3-(2,3-dihydro-benzo[1,4]dioxin-6-yl)-5-{2-[(R*)-2-hydroxy-2-(3-methoxy-quinoxalin-5-yl)-ethylamino]-ethyl}-oxazolidin-2-one] has an MIC of 0.125 µg/mL (≈ 0.268 µM).
For `COc1ccc2ncc(F)c(CNCC[C@@H](N)[C@@H]3CN(c4ccc5c(c4)OCCO5)C(=O)O3)c2n1` (relative stereo) [Example 107, (S*)-5-{(R*)-1-amino-3-[(3-fluoro-6-methoxy-[1,5]naphthyridin-4-ylmethyl)-amino]-propyl}-3-(2,3-dihydro-benzo[1,4]dioxin-6-yl)-oxazolidin-2-one], the MIC was at most 0.063 µg/mL.
In the case of `COc1cnc2cccc(CCCN(C)C[C@@H]3CN(c4ccc(C)c(F)c4)C(=O)O3)c2c1` [Example 43, (R)-3-(3-fluoro-4-methyl-phenyl)-5-({[3-(3-methoxy-quinolin-5-yl)-propyl]-methyl-amino}-methyl)-oxazolidin-2-one], the MIC is reported as at most 0.063 µg/mL.
`COc1ccc2nccc(CCNCCC3CN(c4ccc5c(c4)OCCO5)C(=O)O3)c2n1` (racemic) [Example 72, (rac)-3-(2,3-dihydro-benzo[1,4]dioxin-6-yl)-5-{2-[2-(6-methoxy-[1,5]naphthyridin-4-yl)-ethylamino]-ethyl}-oxazolidin-2-one] gave an MIC of at most 0.063 µg/mL.
Work on `COc1ccc2ncc(F)c(CN(CCO)CCC[C@@H]3CN(c4ccc5c(c4)NC(=O)CO5)C(=O)O3)c2n1` [Example 179, 6-((R)-5-{3-[(3-fluoro-6-methoxy-[1,5]naphthyridin-4-ylmethyl)-(2-hydroxy-ethyl)-amino]-propyl}-2-oxo-oxazolidin-3-yl)-4H-benzo[1,4]oxazin-3-one] yielded an MIC of at most 0.063 µg/mL.

Same assay, conditions: strain S. aureus 29213, cation-adjusted Mueller-Hinton Broth, pH 7.2-7.3
With `COc1ccc2ncc(F)c(CN(CCCC3CN(c4ccc5c(c4)NC(=O)CS5)C(=O)O3)C[C@@H](O)CN(C)C)c2n1` (mixture of isomers) [Example 153, 6-((RS)-5-{3-[((S)-3-dimethylamino-2-hydroxy-propyl)-(3-fluoro-6-methoxy-[1,5]naphthyridin-4-ylmethyl)-amino]-propyl}-2-oxo-oxazolidin-3-yl)-4H-1-benzo[1,4]thiazin-3-one] the “MIC S. aureus 29213” value was “≦0.063 mg/l”.
For “6-((RS)-5-{[(2R,3R)-2,3-dihydroxy-3-(6-methoxy-[1,5]naphthyridin-4-yl)-propylamino]-methyl}-2-oxo-oxazolidin-3-yl)-4H-benzo[1,4]thiazin-3-one and 6-((RS)-5-{[(2S,3S)-2,3-dihydroxy-3-(6-methoxy-[1,5]naphthyridin-4-yl)-propylamino]-methyl}-2-oxo-oxazolidin-3-yl)-4H-benzo[1,4]thiazin-3-one [Example 52]”, the “MIC S. aureus 29213” value was 0.25 µg/mL.
